PubChem BioAssay (NCI)
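Values below derive from 48-hour exposures of cells grown in 96-well plates, with endpoints linearly interpolated between the two concentrations bracketing the appropriate inhibition level. GI50 is the concentration that inhibits growth by half. TGI is the concentration that stops growth completely.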

Tests used:
Assay in all cases: NCI-60 cell line screen, 48 h
CAKI-1 renal = tested on: CAKI-1 renal
HCC-2998 colon = tested on: HCC-2998 colon
HL-60(TB) leukemia = tested on: HL-60(TB) leukemia
MDA-MB-231 breast = tested on: MDA-MB-231 breast
NCI-H23 lung = tested on: NCI-H23 lung
NCI-H522 lung = tested on: NCI-H522 lung
OVCAR-3 ovarian = tested on: OVCAR-3 ovarian
SK-MEL-28 melanoma = tested on: SK-MEL-28 melanoma
UACC-257 melanoma = tested on: UACC-257 melanoma
MDA-N = tested on: MDA-N

O=C(Nc1cccc(-n2ccc3c(NC(=O)c4ccccc4)nccc32)c1)Nc1cc(C(F)(F)F)cc(C(F)(F)F)c1
GI50 (CAKI-1 renal): 1.53 µM
TGI (CAKI-1 renal): 4.32 µM
GI50 (HCC-2998 colon): 2.1 µM
TGI (HCC-2998 colon): > 50 µM
GI50 (HL-60(TB) leukemia): 1.72 µM
TGI (HL-60(TB) leukemia): 5.01 µM
GI50 (MDA-MB-231 breast): 1.42 µM
TGI (MDA-MB-231 breast): 4.73 µM
GI50 (NCI-H23 lung): 1.96 µM
TGI (NCI-H23 lung): > 50 µM
GI50 (NCI-H522 lung): 0.83 µM
TGI (NCI-H522 lung): 2.69 µM
GI50 (OVCAR-3 ovarian): 1.28 µM
TGI (OVCAR-3 ovarian): 3.18 µM
GI50 (SK-MEL-28 melanoma): 2.14 µM
TGI (SK-MEL-28 melanoma): > 50 µM
GI50 (UACC-257 melanoma): 2.45 µM
TGI (UACC-257 melanoma): 15.2 µM

Oc1ccc(-c2nc(-c3cccnc3)c(-c3ccc(Cl)cc3)[nH]2)cc1O
TGI (CAKI-1 renal): 46.7 µM
TGI (HCC-2998 colon): 26.6 µM
TGI (HL-60(TB) leukemia): > 100 µM
TGI (MDA-MB-231 breast): 47.8 µM
TGI (MDA-N): 25.1 µM
TGI (NCI-H23 lung): 23.9 µM
TGI (NCI-H522 lung): 4.68 µM
TGI (OVCAR-3 ovarian): 14.5 µM
TGI (SK-MEL-28 melanoma): 36.2 µM
TGI (UACC-257 melanoma): 28.3 µM

COC(=O)/C=C\n1c(C)cc(=O)[nH]c1=O
TGI (HCC-2998 colon): > 100 µM
TGI (MDA-N): > 100 µM
TGI (NCI-H23 lung): > 100 µM
TGI (NCI-H522 lung): > 100 µM
TGI (OVCAR-3 ovarian): > 100 µM
TGI (SK-MEL-28 melanoma): > 100 µM
TGI (UACC-257 melanoma): > 100 µM

O=C(c1ccco1)N1CCCN(C(=O)c2ccco2)C1=S
TGI (CAKI-1 renal): > 100 µM
TGI (HL-60(TB) leukemia): > 100 µM
TGI (MDA-MB-231 breast): > 100 µM
TGI (MDA-N): > 100 µM
TGI (NCI-H23 lung): > 100 µM
TGI (OVCAR-3 ovarian): > 100 µM
TGI (SK-MEL-28 melanoma): > 100 µM
TGI (UACC-257 melanoma): > 100 µM

Cc1ccc(S(=O)(=O)N/N=C(\c2nc3ccc(Cl)cc3[nH]c2=O)C(O)c2cccc([N+](=O)[O-])c2)cc1 (centres undefined)
TGI (CAKI-1 renal): > 100 µM
TGI (HCC-2998 colon): > 100 µM
TGI (HL-60(TB) leukemia): > 100 µM
TGI (NCI-H23 lung): > 100 µM
TGI (NCI-H522 lung): > 100 µM
TGI (OVCAR-3 ovarian): > 100 µM
TGI (SK-MEL-28 melanoma): > 100 µM
TGI (UACC-257 melanoma): > 100 µM

Cc1c(Cl)nc(Nc2nc3ccccc3[nH]2)nc1Cl
TGI (CAKI-1 renal): 71.9 µM
TGI (HL-60(TB) leukemia): > 100 µM
TGI (MDA-N): > 100 µM
TGI (NCI-H23 lung): > 100 µM
TGI (NCI-H522 lung): > 100 µM
TGI (SK-MEL-28 melanoma): > 100 µM
TGI (UACC-257 melanoma): > 100 µM

CC(O)c1cc2c(s1)C(=O)c1sccc1C2=O (centres undefined)
TGI (CAKI-1 renal): 1.19 µM
TGI (HCC-2998 colon): 0.402 µM
TGI (HL-60(TB) leukemia): > 100 µM
TGI (MDA-N): 0.0367 µM
TGI (NCI-H522 lung): 0.602 µM
TGI (SK-MEL-28 melanoma): 0.479 µM
TGI (UACC-257 melanoma): 0.0358 µM

Cc1c(Cl)c2ccccc2n1S(=O)(=O)c1ccccc1
TGI (CAKI-1 renal): > 100 µM
TGI (HCC-2998 colon): > 100 µM
TGI (HL-60(TB) leukemia): 78.8 µM
TGI (NCI-H23 lung): > 100 µM
TGI (NCI-H522 lung): 67.1 µM
TGI (OVCAR-3 ovarian): > 100 µM
TGI (SK-MEL-28 melanoma): > 100 µM
TGI (UACC-257 melanoma): > 100 µM

COC(=O)/C(=C\Nc1cccc(C)n1)S(=O)(=O)c1ccc(C)cc1
TGI (HCC-2998 colon): > 100 µM
TGI (HL-60(TB) leukemia): 53.3 µM
TGI (MDA-MB-231 breast): > 100 µM
TGI (MDA-N): > 100 µM
TGI (NCI-H23 lung): > 100 µM
TGI (NCI-H522 lung): > 100 µM
TGI (OVCAR-3 ovarian): > 100 µM
TGI (SK-MEL-28 melanoma): > 100 µM
TGI (UACC-257 melanoma): > 100 µM

CCC(CON(C)c1ccccc1)(SC)SC
TGI (CAKI-1 renal): > 100 µM
TGI (HCC-2998 colon): > 100 µM
TGI (HL-60(TB) leukemia): > 100 µM
TGI (MDA-MB-231 breast): > 100 µM
TGI (MDA-N): > 100 µM
TGI (NCI-H23 lung): > 100 µM
TGI (NCI-H522 lung): > 100 µM
TGI (SK-MEL-28 melanoma): > 100 µM
TGI (UACC-257 melanoma): > 100 µM

CCOC(=O)C1(C/C=C(/C)Cl)CCCC1=O (centres undefined)
TGI (CAKI-1 renal): > 100 µM
TGI (HL-60(TB) leukemia): > 100 µM
TGI (NCI-H23 lung): > 100 µM
TGI (NCI-H522 lung): > 100 µM
TGI (OVCAR-3 ovarian): > 100 µM
TGI (SK-MEL-28 melanoma): > 100 µM
TGI (UACC-257 melanoma): > 100 µM

CC(=O)OCCCOCn1c(Cc2ccccc2)c(C)c(=O)[nH]c1=O
TGI (CAKI-1 renal): > 100 µM
TGI (HCC-2998 colon): > 100 µM
TGI (MDA-MB-231 breast): > 100 µM
TGI (MDA-N): > 100 µM
TGI (NCI-H23 lung): > 100 µM
TGI (NCI-H522 lung): > 100 µM
TGI (OVCAR-3 ovarian): > 100 µM
TGI (SK-MEL-28 melanoma): > 100 µM
TGI (UACC-257 melanoma): > 100 µM

COC(=O)/C=C1/CCC(C(=O)OC)N1 (centres undefined)
TGI (CAKI-1 renal): > 100 µM
TGI (HCC-2998 colon): > 100 µM
TGI (HL-60(TB) leukemia): > 100 µM
TGI (NCI-H23 lung): > 100 µM
TGI (OVCAR-3 ovarian): > 100 µM
TGI (SK-MEL-28 melanoma): > 100 µM
TGI (UACC-257 melanoma): > 100 µM

COc1ccc(-c2cc(=O)c3cc4c(cc3[nH]2)OCO4)cc1OC
TGI (CAKI-1 renal): > 100 µM
TGI (HCC-2998 colon): > 100 µM
TGI (HL-60(TB) leukemia): > 100 µM
TGI (NCI-H23 lung): > 100 µM
TGI (NCI-H522 lung): > 100 µM
TGI (OVCAR-3 ovarian): > 100 µM
TGI (SK-MEL-28 melanoma): > 100 µM

CCOC(=O)C1=CNC(C(=O)OCC)C1c1cccn1-c1ccc(Cl)cc1[N+](=O)[O-] (centres undefined)
TGI (CAKI-1 renal): 58.6 µM
TGI (HCC-2998 colon): 51.9 µM
TGI (MDA-MB-231 breast): 27.2 µM
TGI (MDA-N): 54.8 µM
TGI (NCI-H23 lung): > 100 µM
TGI (NCI-H522 lung): 35.2 µM
TGI (OVCAR-3 ovarian): 30.3 µM
TGI (SK-MEL-28 melanoma): 53.1 µM
TGI (UACC-257 melanoma): 70 µM

O=C(NCCC1([N+](=O)[O-])CCN(C(=O)c2ccccc2)CC1)c1ccccc1
TGI (CAKI-1 renal): > 100 µM
TGI (HL-60(TB) leukemia): > 100 µM
TGI (MDA-MB-231 breast): > 100 µM
TGI (MDA-N): > 100 µM
TGI (NCI-H23 lung): > 100 µM
TGI (NCI-H522 lung): > 100 µM
TGI (UACC-257 melanoma): 87.8 µM

CC(C)(C)N=NNc1cn(C2OC(CO)C(O)C2O)c(=O)[nH]c1=O (centres undefined)
TGI (CAKI-1 renal): > 100 µM
TGI (HCC-2998 colon): > 100 µM
TGI (HL-60(TB) leukemia): > 100 µM
TGI (NCI-H23 lung): > 100 µM
TGI (NCI-H522 lung): > 100 µM
TGI (OVCAR-3 ovarian): > 100 µM
TGI (SK-MEL-28 melanoma): > 100 µM
TGI (UACC-257 melanoma): > 100 µM

COC(=O)C1Cc2c(OC)ccc(OC)c2CC(C(=O)OC)C1=O (centres undefined)
TGI (CAKI-1 renal): > 100 µM
TGI (HCC-2998 colon): > 100 µM
TGI (MDA-MB-231 breast): > 100 µM
TGI (MDA-N): > 100 µM
TGI (NCI-H23 lung): 85.3 µM
TGI (NCI-H522 lung): > 100 µM
TGI (OVCAR-3 ovarian): > 100 µM
TGI (SK-MEL-28 melanoma): > 100 µM
TGI (UACC-257 melanoma): > 100 µM

C1CCC2(CC1)O[C@@H]1[C@@H](O2)[C@@H](O[C@H]2O[C@@H]3COC4(CCCCC4)O[C@H]3[C@@H]3OC4(CCCCC4)O[C@@H]23)O[C@@H]2COC3(CCCCC3)O[C@@H]12
TGI (CAKI-1 renal): > 100 µM
TGI (HL-60(TB) leukemia): > 100 µM
TGI (MDA-MB-231 breast): > 100 µM
TGI (MDA-N): > 100 µM
TGI (NCI-H23 lung): > 100 µM
TGI (NCI-H522 lung): > 100 µM
TGI (OVCAR-3 ovarian): > 100 µM
TGI (SK-MEL-28 melanoma): > 100 µM
TGI (UACC-257 melanoma): > 100 µM

N#CC1=C(N)n2c(s/c(=C\c3ccc(Cl)cc3)c2=O)=C(c2nc3ccccc3[nH]2)C1c1ccc(Cl)cc1 (centres undefined)
TGI (CAKI-1 renal): 10.7 µM
TGI (HCC-2998 colon): 1.7 µM
TGI (HL-60(TB) leukemia): 6.45 µM
TGI (NCI-H23 lung): 1.58 µM
TGI (NCI-H522 lung): 3.68 µM
TGI (OVCAR-3 ovarian): 3.66 µM
TGI (SK-MEL-28 melanoma): 3.03 µM
TGI (UACC-257 melanoma): 7.84 µM

CCCN1C(=O)CC(C)N(Cc2ccccc2Cl)C1=S (centres undefined)
TGI (CAKI-1 renal): > 100 µM
TGI (HL-60(TB) leukemia): > 100 µM
TGI (MDA-MB-231 breast): 97 µM
TGI (MDA-N): 60.6 µM
TGI (NCI-H23 lung): 56.7 µM
TGI (NCI-H522 lung): 56.6 µM
TGI (OVCAR-3 ovarian): 88.8 µM
TGI (SK-MEL-28 melanoma): 62.4 µM
TGI (UACC-257 melanoma): 38 µM

CC(=O)[C@@]1(C)CC2(CCN(C)CC2)OC1C (some centres undefined)
TGI (CAKI-1 renal): > 100 µM
TGI (MDA-MB-231 breast): > 100 µM
TGI (MDA-N): > 100 µM
TGI (NCI-H23 lung): > 100 µM
TGI (NCI-H522 lung): > 100 µM
TGI (OVCAR-3 ovarian): > 100 µM
TGI (SK-MEL-28 melanoma): > 100 µM
TGI (UACC-257 melanoma): > 100 µM

COc1cc2c(c(OC)c1OC)-c1ccc(SC)c(=O)cc1[C@@H](NCc1ccc(C#N)cc1)CC2
TGI (CAKI-1 renal): > 100 µM
TGI (HCC-2998 colon): 0.00662 µM
TGI (HL-60(TB) leukemia): 0.0089 µM
TGI (NCI-H23 lung): 0.00885 µM
TGI (NCI-H522 lung): 0.0081 µM
TGI (OVCAR-3 ovarian): 0.0129 µM
